Experimental data from patent US20180021361A1, “COMBINATION DRUG TREATMENT FOR HEPATITIS C INFECTION” (JANSSEN PHARMACEUTICALS, INC., priority 2016, published 2018).
Entries after “also recorded” stand apart in the source; their conditions may differ.

What was measured:
[1] = Phase-1 drug-drug interaction study, plasma PK in healthy volunteers
Protocol: A drug-drug interaction study (DDI) study is a study designed to investigate whether a drug alters the pharmacokinetics of another drug or drugs or their metabolites.
Compound (III) Subjects received 800 mg of Compound (III) once daily from Days 1-3, Days 11-13, and Days 21-23. PK blood samples for determination of Compound (III) and metabolite concentrations were collected in reference to the Day 3, Day 13, and Day 23 doses.
Simeprevir—Subjects received 150 mg of Simeprevir (SMV) once daily from Days 4-23. PK blood samples for determination of SMV concentrations were collected in reference to the Day 10, Day 13, Day 20, and Day 23 doses.
Odalasvir—Subjects received a loading dose of 150 mg on Day 14, and 50 mg of Odalasvir once daily from Days 15-23. PK blood samples for determination of Odalasvir concentrations were collected in reference to the Day 20 and Day 23 doses.
Compound (III)—Subjects received 800 mg of Compound (III) once daily from Days 1-3, Days 11-13 and Days 21-23. PK blood samples for determination of Compound (III) and metabolite concentrations were collected in reference to the Day 3, Day 13, and Day 23 doses.
Simeprevir—Subjects receive 150 mg of SMV once daily from Days 4-23. PK blood samples for determination of SMV concentrations were collected in reference to the Day 20 and Day 23 doses.
Odalasvir—Subjects receive a loading dose of 150 mg on Day 4, and 50 mg of Odalasvir once daily from Days 5-23. PK blood samples for determination of Odalasvir concentrations were collected in reference to the Day 10, Day 13, Day 20, and Day 23 doses.
A primary objective was to evaluate the effect of multiple oral doses of Odalasvir (alone), Simeprevir (alone), and Odalasvir and Simeprevir on the multiple oral dose PK of Compound (III) (and certain metabolites thereof, such as the major metabolites in systemic circulation) in healthy volunteers. Other objectives were to evaluate the safety and tolerability of multiple oral doses of Compound (III) when administered alone and in combination with single and multiple oral doses of Odalasvir and/or Simeprevir in healthy volunteers; to determine the potential effect of Compound of Compound (III) and/or Odalasvir on the steady-state PK of Simeprevir in healthy volunteers; to determine the potential effect of Compound of Compound (III) and/or Simeprevir on the steady state PK of Odalasvir in healthy volunteers.
Various other PK parameters were estimated including: […], t1/2, Tmax, Tlast, CL/F, Vz/F, and λz.
Odalasvir: 150 mg loading dose; 50 mg for the remainder of the study period.

[2] = Phase 2a open-label combination study, pharmacokinetics; type: in vivo, human
Protocol: A randomized, Phase 2a, open-label study was carried out to evaluate the safety, pharmacokinetics and efficacy of the combination of Compound (III), Odalasvir and Simeprevir in Genotype 1 treatment-naïve subjects with chronic hepatitis C. Other treatment-naïve subjects included Genotype 2, 3, 4, 5 and 6. The aim of the study was to determine the efficacy, pharmacokinetics (PK), and safety of Compound (III)+Odalasvir±SMV in HCV-infected subjects. […] Efficacy, PK and safety evaluations were conducted during and through 24 weeks post dosing. Up to 15 cohorts were enrolled; data was generated from cohorts that have completed dosing.

[3] = prior drug-drug interaction study, Rosuvastatin substrate of OATPs & BCRP; cited from earlier work
[4] = target: T1, OATP1B1 (Homo sapiens, UniProt Q9Y6L6); conditions: uptake transporter; cited from earlier work
T1 sequence (Q9Y6L6 1-691): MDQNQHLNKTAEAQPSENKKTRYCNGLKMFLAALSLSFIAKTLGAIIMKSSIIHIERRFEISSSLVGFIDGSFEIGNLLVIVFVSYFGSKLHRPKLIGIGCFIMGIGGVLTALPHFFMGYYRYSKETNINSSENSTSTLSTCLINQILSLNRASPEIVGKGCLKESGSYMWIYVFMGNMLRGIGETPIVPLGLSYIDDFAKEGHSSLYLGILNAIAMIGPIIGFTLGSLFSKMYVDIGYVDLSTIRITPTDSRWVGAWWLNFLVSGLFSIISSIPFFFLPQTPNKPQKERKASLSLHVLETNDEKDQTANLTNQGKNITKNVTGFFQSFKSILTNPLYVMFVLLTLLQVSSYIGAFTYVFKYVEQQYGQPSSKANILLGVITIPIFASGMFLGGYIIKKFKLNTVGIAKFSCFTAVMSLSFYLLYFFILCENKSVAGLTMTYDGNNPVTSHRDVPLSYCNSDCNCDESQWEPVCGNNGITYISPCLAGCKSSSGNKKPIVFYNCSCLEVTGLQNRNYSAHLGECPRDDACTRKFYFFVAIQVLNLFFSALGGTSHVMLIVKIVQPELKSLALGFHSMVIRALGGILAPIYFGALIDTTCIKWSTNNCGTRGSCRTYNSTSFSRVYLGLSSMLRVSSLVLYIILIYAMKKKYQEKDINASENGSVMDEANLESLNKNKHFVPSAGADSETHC

[5] = target: MRP2 (Homo sapiens, UniProt Q92887); conditions: efflux transporter; cited from earlier work
MRP2, sequence (Q92887 whole entry): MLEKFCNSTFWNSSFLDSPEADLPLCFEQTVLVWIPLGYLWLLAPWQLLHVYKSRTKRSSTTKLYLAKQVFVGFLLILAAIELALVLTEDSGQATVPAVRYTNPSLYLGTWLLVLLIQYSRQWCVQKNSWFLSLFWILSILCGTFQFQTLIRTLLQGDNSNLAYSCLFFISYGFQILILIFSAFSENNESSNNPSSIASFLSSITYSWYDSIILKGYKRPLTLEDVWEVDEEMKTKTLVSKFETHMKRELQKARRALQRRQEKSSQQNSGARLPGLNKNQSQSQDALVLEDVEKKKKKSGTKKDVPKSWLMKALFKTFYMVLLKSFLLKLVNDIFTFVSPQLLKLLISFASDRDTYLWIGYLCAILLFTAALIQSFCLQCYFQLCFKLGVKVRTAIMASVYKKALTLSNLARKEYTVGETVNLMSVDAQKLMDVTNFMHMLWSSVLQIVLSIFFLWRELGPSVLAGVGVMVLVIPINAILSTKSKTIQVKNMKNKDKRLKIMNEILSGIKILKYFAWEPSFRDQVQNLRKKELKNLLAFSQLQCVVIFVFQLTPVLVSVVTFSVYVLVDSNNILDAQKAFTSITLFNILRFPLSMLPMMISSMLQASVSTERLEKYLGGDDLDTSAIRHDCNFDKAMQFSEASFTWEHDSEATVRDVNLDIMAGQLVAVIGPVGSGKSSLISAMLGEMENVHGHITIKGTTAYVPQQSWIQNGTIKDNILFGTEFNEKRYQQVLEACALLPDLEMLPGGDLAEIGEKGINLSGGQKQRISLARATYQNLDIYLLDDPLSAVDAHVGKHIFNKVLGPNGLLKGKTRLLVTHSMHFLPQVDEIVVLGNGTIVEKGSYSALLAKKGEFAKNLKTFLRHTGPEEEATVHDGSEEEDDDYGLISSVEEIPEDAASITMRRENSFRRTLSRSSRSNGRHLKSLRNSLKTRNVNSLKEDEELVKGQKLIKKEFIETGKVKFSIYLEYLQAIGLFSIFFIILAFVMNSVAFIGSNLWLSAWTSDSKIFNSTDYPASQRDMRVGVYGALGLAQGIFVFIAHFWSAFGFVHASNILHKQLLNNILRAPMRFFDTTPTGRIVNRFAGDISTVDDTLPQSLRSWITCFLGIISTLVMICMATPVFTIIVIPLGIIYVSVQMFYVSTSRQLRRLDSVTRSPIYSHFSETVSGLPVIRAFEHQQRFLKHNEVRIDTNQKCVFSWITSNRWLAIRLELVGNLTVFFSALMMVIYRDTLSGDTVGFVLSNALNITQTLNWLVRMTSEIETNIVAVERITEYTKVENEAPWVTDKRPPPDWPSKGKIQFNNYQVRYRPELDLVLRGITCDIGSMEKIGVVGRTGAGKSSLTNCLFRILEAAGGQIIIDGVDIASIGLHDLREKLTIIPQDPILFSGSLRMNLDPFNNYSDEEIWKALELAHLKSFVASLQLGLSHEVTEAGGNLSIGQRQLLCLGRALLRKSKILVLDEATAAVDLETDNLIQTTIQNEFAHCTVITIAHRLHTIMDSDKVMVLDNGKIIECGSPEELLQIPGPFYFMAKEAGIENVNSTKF

[6] = prior drug-drug interaction study, Digoxin a pgp-substrate; cited from earlier work
[7] = target: BSEP (Homo sapiens, UniProt O95342); conditions: efflux transporter; cited from earlier work
BSEP, sequence (O95342 whole entry): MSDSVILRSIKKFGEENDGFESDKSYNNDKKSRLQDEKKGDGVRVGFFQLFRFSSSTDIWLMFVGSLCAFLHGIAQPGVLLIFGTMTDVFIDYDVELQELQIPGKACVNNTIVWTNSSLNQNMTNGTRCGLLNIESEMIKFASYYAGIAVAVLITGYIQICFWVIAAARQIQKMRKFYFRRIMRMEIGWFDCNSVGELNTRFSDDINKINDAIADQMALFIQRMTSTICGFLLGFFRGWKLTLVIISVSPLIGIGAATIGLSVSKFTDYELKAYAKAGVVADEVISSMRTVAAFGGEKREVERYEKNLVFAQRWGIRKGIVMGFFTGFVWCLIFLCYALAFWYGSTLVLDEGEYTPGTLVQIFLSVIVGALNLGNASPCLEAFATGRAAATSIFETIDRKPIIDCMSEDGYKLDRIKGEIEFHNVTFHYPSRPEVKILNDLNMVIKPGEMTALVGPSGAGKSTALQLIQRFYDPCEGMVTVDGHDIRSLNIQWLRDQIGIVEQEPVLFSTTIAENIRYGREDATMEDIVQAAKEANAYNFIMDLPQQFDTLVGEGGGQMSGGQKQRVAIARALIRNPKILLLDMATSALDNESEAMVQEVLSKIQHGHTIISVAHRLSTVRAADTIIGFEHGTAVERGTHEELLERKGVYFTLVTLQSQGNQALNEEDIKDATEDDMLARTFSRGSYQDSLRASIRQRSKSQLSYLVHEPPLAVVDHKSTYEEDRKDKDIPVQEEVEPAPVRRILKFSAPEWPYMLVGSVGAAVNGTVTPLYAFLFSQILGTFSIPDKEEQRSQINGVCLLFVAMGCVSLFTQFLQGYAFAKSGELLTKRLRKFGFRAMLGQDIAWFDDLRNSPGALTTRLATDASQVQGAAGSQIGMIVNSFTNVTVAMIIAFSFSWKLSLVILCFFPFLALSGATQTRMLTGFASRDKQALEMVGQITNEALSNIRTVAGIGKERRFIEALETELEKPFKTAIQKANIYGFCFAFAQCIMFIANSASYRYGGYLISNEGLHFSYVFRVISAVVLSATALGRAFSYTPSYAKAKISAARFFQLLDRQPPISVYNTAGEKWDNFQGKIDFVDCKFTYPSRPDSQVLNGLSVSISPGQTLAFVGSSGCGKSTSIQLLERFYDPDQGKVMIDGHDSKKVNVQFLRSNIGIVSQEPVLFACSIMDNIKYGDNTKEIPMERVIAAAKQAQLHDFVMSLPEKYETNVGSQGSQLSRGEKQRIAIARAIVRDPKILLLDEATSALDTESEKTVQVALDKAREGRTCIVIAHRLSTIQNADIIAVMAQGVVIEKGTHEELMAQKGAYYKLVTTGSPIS

[8] = target: P-gp (Homo sapiens, UniProt P08183); conditions: efflux transporter; cited from earlier work
P-gp, sequence (P08183 whole entry): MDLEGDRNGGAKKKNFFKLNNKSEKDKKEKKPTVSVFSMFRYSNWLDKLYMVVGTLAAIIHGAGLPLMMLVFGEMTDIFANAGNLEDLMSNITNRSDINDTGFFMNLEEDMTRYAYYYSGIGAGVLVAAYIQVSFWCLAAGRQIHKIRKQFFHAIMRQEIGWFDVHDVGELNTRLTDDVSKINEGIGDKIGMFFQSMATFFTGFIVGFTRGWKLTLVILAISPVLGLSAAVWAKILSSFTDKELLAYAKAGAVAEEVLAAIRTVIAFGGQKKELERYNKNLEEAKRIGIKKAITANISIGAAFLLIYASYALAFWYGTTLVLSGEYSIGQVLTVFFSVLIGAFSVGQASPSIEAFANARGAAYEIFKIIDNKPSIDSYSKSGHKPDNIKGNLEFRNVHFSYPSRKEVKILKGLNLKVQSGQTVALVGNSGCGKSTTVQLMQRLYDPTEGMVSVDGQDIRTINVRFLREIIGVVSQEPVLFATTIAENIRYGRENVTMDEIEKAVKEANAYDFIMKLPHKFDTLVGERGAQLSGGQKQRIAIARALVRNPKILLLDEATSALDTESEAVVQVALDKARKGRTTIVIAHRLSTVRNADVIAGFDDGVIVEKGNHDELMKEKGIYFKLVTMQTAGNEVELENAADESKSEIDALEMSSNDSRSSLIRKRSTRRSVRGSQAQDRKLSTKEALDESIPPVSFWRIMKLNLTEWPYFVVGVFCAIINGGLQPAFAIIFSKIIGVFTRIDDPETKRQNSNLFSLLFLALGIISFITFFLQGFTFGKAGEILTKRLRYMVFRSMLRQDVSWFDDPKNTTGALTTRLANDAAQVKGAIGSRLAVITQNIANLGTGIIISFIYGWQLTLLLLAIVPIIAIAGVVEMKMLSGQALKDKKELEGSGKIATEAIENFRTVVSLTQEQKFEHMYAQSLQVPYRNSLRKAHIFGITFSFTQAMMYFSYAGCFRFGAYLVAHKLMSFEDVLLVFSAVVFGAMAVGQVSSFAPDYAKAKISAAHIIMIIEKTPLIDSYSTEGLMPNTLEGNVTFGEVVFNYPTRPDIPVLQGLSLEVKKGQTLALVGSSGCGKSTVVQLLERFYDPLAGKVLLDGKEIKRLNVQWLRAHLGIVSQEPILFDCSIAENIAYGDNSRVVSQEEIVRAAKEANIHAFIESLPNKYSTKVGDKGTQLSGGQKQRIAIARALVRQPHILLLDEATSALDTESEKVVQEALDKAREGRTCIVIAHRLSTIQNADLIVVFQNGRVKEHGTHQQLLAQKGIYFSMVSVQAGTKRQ

Compound | exposure increase caused by Odalasvir ([1]; DDI study results) | exposure increase caused by SMV ([1]; DDI study results) | observed exposure in Cohort 1 / group (i) versus anticipated ([2]; Compound (III) 400 mg, ODV 50 mg QD, SMV 100 mg QD) | decrease of exposure on reducing Simeprevir dosing from 100 mg to 75 mg QD ([2]; in vivo) | increase in Rosuvastatin exposure [3] | in vitro inhibition of OATP1B1 [4] | in vitro inhibition of MRP2 [5] | increase in exposure of Digoxin [6] | in vitro inhibition of BSEP [7] | in vitro inhibition of P-gp [8] | exposure increase, effect of the three Compounds ([1]; DDI study results) | increase of exposure with the combination of the three drugs ([1]; human in vivo study) | effect of Compound (III) on exposure / bioavailability ([1]; human subjects) | change of exposure on increasing Compound (III) dose from 400 to 800 mg ([2]; HCV GT 1 patients)
C[C@H](NP(=O)(O)OC[C@@]1(F)O[C@@H](n2ccc(=O)[nH]c2=O)[C@](C)(O)[C@@H]1O)C(=O)O [Compound A-3] | 2.6 × | 1.6 × |  |  |  |  |  |  |  |  |  |  |  | 
COc1ccc2c(O[C@@H]3C[C@H]4C(=O)N[C@]5(C(=O)NS(=O)(=O)C6CC6)C[C@H]5/C=C\CCCCN(C)C(=O)[C@@H]4C3)cc(-c3nc(C(C)C)cs3)nc2c1C [SMV, Simeprevir, reference compound] | 1.6 × |  | higher than anticipated | less than proportionally | 3 fold | strong in vitro inhibition | strong/moderate | 35% | strong/moderate | strong/moderate | 1.6 × | 1.6 times | no apparent effect; also recorded: does not alter | 
C[C@]1(O)[C@H](n2ccc(=O)[nH]c2=O)O[C@](F)(CO)[C@H]1O [Compound A-1] | 1.5 × | no apparent effect |  |  |  |  |  |  |  |  |  |  |  | less than proportionally
